# Reference: publication PMC9890698 (BMC Biology, 2023)
# Several values for one entry are separate records, joined by “and”; a condition that tells them apart may be missing. Equal values may be shown once.
# How the values were obtained:
# Human P2Y1-R [1] = biological target: T1, Human P2Y1-R (Homo sapiens, UniProt P47900); test: Gαq protein activation BRET2 assay (Gαq-RLuc8/GFP2-Gγ2/Gβ1) in HEK293T cells expressing P2Y1-R; format: cell-based; set-up: ADP-modulated BRET / MRS2179-modulated BRET: unit not given here; settings: for G protein signaling, Ligand-modulated BRET (% of maximum MRS2179 mean value): Figure 4a, individual replicates
# T1 construct: expressed in transfected cells; host or cells: HEK293T/17
# Text: As previously described, using a BRET^2 (bioluminescence resonance energy transfer)-based assay, we directly monitored the basal Gαq protein activation by measuring the interaction between Gαq and Gγ2 subunits of the Gαqβ1γ2 heterotrimer complex. Indeed, this assay is based on the non-radiative transfer between the Renilla reniformis luciferase (RLuc8) energy donor fused to the Gαq protein subunit and the fluorescent GFP2 energy acceptor fused to Gγ2 protein subunit (Fig. 1a). […] By contrast, ligand-independent constitutive receptor activation or agonist-induced receptor activation will promote Gαq/Gγ2 subunit dissociation, thereby leading to a decrease of the basal BRET signal (Fig. 1a). […] To preclude any P2Y1-R activation by a passive release of ADP by HEK293T cells, we performed similar experiments in the presence of high concentration of apyrase (0.2U/mL) to degrade any trace of ADP in the medium (Additional File 2: Fig. S2a). Under these conditions, P2Y1-R expression still induces a marked and significant decrease of the basal BRET signal compared to control cells (pcDNA3.1), thereby supporting a P2Y1-R-dependent constitutive activation of Gαq protein. […] Of note, because P2Y1-R and AT1-R were respectively Myc- and HA-tagged and were thus detected using different primary antibodies, their expression at the cell surface cannot be compared between each other’s.
# Human P2Y1-R (NCBI Reference Sequence: NM_002563.2) and P2Y12-R (NCBI Reference Sequence: NM_022788.3) were fused to double Myc epitope and rat AT1-R (NCBI Reference Sequence: NM_030985.4) to HA tag in N-terminus extracellular region. Alternatively, receptors were also fused to Venus tag in C-terminus intracellular region. Plasmids encoding Gαq-RLuc8, GFP2-Gγ2 and untagged Gβ1 were previously described. ADP was purchased from Sigma-Aldrich/Merck (Darmstadt, Germany). […] The Gq inhibitor (FR900359) was kindly supplied by Evi Kostenis (University of Bonn. Germany).
# G protein activation and β-arrestin 2 recruitment were performed as previously described. Briefly, vectors encoding receptors, Gαq-RLuc8, GFP2-Gγ2, Gβ1, or β-arrestin 2 were transiently cotransfected into HEK293T/17 cells as indicated in the figure legends. Forty-eight hours after transfection, cells were washed and resuspended in PBS containing 0.1% (w/v) glucose at room temperature and then distributed (80 μg proteins/well) in a 96-well microplate (PerkinElmer). For G protein activation experiments (BRET^2), cells were incubated in the absence (basal BRET signal) or in the presence of ligand for 1 minute. BRET signal between RLuc8 and GFP2 was measured after addition of the luciferase substrate coelenterazine 400a (5 μM). For β-arrestin 2 recruitment (BRET^1), cells were stimulated with ligands for 5 or 15 min. BRET signal was recorded after incubation with coelenterazine h (5 μM) for 8 min. For kinetics studies, BRET signal between RLuc and Venus was recorded at 20-s intervals at basal state for the 2 first minutes and then for 5 min after ligand injection. For saturation curves (BRET^1), the expression level of Venus- or RLuc-tagged protein was determined by direct measurement of total fluorescence and luminescence respectively. Total fluorescence was first measured with an excitation filter at 485 nm and an emission filter at 520 nm. Then, the same sample was incubated for 8 minutes with 5 μM coelenterazine h and the total luminescence was measured. BRET^2 and BRET^1 readings were collected using a modified Infinite F500 (Tecan Group Ltd). The BRET^2 signal was calculated by the ratio of emission of GFP2 (510–540 nm) to RLuc8 (370–450 nm) and the BRET^1 signal by the ratio of emission of Venus (520–570 nm) to RLuc (370–480 nm). […]
# Human P2Y1-R [2] = biological target: T1, Human P2Y1-R; test: IP1 accumulation assay (HTRF) in HEK293T cells expressing P2Y1-R; format: cell-based; settings: ADP 100 μM, MRS2179 10 μM, Gq inhibitor 100 nM, 2 h, result in words
# Text: Since Gαq protein activation is known to induce PLC activation leading to IP3 and subsequent cytosolic calcium release, we analyzed the constitutive Gαq-dependent P2Y1-R signaling by quantifying intracellular inositol monophosphate (IP1) using a monoclonal antibody-based competitive ELISA. IP1 is a downstream metabolite of IP3 that accumulates in cells following Gαq protein-coupled receptor activation, making it an ideal readout for Gαq protein-dependent signaling pathways.
# [3] = system: washed murine platelets (P2Y1-R/Gαq signaling); test: IP1 accumulation assay (HTRF) in washed murine platelets; format: cell-based, mouse; settings: washed murine platelets, ADP 100 μM, MRS2179 10 μM, Gq inhibitor 100 nM, 2 h, apyrase 0.02 U/mL, result in words
# Procedure: As performed in HEK293T cells, we thus quantified intracellular IP1 levels to monitor Gαq protein-dependent signaling pathways.
# Platelet-rich plasma (PRP) was obtained by mixing blood with 1 volume of modified Hepes Tyrode’s buffer (137 mM NaCl, 2 mM KCl, 12 mM NaHCO3, 0.3 mM NaH2PO4, 1 mM MgCl2, 2 mM CaCl2, 5.5 mM glucose, 5 mM HEPES, and 0.35% (w/v) BSA, pH 6.7) followed by a centrifugation at 150 g for 2 min at 37 °C. Then, platelets were pelleted by centrifugation at 1000 g for 4 min, resuspended in modified Hepes Tyrode’s buffer (pH 7.4), adjusted to 3.10^8 platelets/mL in the presence of 0.02 U/mL of apyrase and 10 μM indomethacin and rested for 45 minutes at 37°C before platelet stimulation. PGI2 (0.5 μM) was added before centrifugation steps to avoid platelet activation.
# Quantification of intracellular IP1 was performed using the HTRF (Homogeneous Time Resolved Fluorescence) IP1 competitive immunoassay (IP-One Tb kit. Cisbio. France) according to the manufacturer’s instructions. Briefly, 20,000 HEK293T/17 cells or 3.10^6 platelets were distributed in a 384-well white microplate (Greiner) and incubated with the indicated molecules for 30 min or 2 h at 37 °C in the presence of 50 mM of LiCl to prevent IP1 degradation. After addition of d2-labeled IP1 (acceptor) and anti-IP1-Cryptate (donor) for 1 h, the specific FRET signals were calculated by the fluorescence ratio of the acceptor and donor emission signal (665/620 nm) collected using a modified Infinite F500 (Tecan Group Ltd). Conversion of the HTRF ratio of each sample into IP1 concentrations was performed on the basis of a standard curve to determine the linear dynamic range of the assay.
# [4] = G protein signaling, Fig. 4a, 1 min
# T1 sequence (P47900 whole entry): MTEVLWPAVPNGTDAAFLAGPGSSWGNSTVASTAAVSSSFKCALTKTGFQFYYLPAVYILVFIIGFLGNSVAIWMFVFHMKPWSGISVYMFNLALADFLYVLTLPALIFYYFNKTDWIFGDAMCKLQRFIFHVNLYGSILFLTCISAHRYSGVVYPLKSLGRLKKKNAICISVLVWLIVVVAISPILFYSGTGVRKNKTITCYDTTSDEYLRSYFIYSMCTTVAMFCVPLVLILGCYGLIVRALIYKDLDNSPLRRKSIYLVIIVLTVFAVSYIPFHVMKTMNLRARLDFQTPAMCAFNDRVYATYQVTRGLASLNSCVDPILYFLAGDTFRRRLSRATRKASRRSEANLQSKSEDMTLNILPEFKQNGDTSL
Compound,"G protein signaling, Ligand-modulated BRET (% of maximum MRS2179 mean value) (Human P2Y1-R [1]; [Ligand] 1.00E-04 M)","G protein signaling, Ligand-modulated BRET (% of maximum MRS2179 mean value) (Human P2Y1-R [1]; [Ligand] 1.00E-05 M)","G protein signaling, Ligand-modulated BRET (% of maximum MRS2179 mean value) (Human P2Y1-R [1]; [Ligand] 1.00E-06 M)","G protein signaling, Ligand-modulated BRET (% of maximum MRS2179 mean value) (Human P2Y1-R [1]; [Ligand] 1.00E-07 M)","G protein signaling, Ligand-modulated BRET (% of maximum MRS2179 mean value) (Human P2Y1-R [1]; [Ligand] 1.00E-08 M)","G protein signaling, Ligand-modulated BRET (% of maximum MRS2179 mean value) (Human P2Y1-R [1]; [Ligand] 1.00E-09 M)","G protein signaling, Ligand-modulated BRET (% of maximum MRS2179 mean value) (Human P2Y1-R [1]; [Ligand] 1.00E-10 M)",EC50 (Human P2Y1-R [1]; [4]) [µM],pEC50 ± s.e.m. (Human P2Y1-R [1]; [4]),"Emax ± s.e.m. (Human P2Y1-R [1]; G protein signaling, Fig. 4a, 1 min, normalized to the mean value of maximal MRS2179 response, in %)","Behaviour on P2Y1-R-dependent constitutive Gαq protein activation (Human P2Y1-R [1]; HEK293T cells, result in words)",Effect on IP1 production (Human P2Y1-R [2]),"ADP-induced change of Gαq/Gγ2 BRET signal (Human P2Y1-R [1]; ADP 10 μM, 1 min, result in words)","ADP-modulated BRET (Human P2Y1-R [1]; P2Y1-R, ADP 10 μM, 1 min, individual experiments)",Effect on IP1 levels [3]
CNc1nc(Cl)nc2c1ncn2[C@H]1CC(OP(=O)(O)O)[C@]2(COP(=O)(O)O)C[C@H]12 (stereo in doubt) [MRS2279],129.138 % of maximum MRS2179 mean value and 120.304 % of maximum MRS2179 mean value and 127.2 % of maximum MRS2179 mean value and 111.359 % of maximum MRS2179 mean value and 120.336 % of maximum MRS2179 mean value and 114.718 % of maximum MRS2179 mean value,65.0429 % of maximum MRS2179 mean value and 66.0702 % of maximum MRS2179 mean value and 71.1916 % of maximum MRS2179 mean value and 1.991 % of maximum MRS2179 mean value and 5.227 % of maximum MRS2179 mean value and 4.981 % of maximum MRS2179 mean value,0.8906 % of maximum MRS2179 mean value and 4.044 % of maximum MRS2179 mean value and 23.8581 % of maximum MRS2179 mean value and -4.504 % of maximum MRS2179 mean value and -0.009097 % of maximum MRS2179 mean value and -7.368 % of maximum MRS2179 mean value,-9.195 % of maximum MRS2179 mean value and -17.2152 % of maximum MRS2179 mean value and -1.434 % of maximum MRS2179 mean value and -4.1872 % of maximum MRS2179 mean value and -11.6872 % of maximum MRS2179 mean value and -13.2576 % of maximum MRS2179 mean value,-19.0202 % of maximum MRS2179 mean value and -26.9343 % of maximum MRS2179 mean value and -6.222 % of maximum MRS2179 mean value and 4.642 % of maximum MRS2179 mean value and -7.159 % of maximum MRS2179 mean value and -5.465 % of maximum MRS2179 mean value,-11.1827 % of maximum MRS2179 mean value and -20.1662 % of maximum MRS2179 mean value and -5.932 % of maximum MRS2179 mean value and 1.161 % of maximum MRS2179 mean value and -4.3372 % of maximum MRS2179 mean value and -8.802 % of maximum MRS2179 mean value,-9.413 % of maximum MRS2179 mean value and -16.1844 % of maximum MRS2179 mean value and -3.46 % of maximum MRS2179 mean value and -2.408 % of maximum MRS2179 mean value and -4.624 % of maximum MRS2179 mean value and -8.503 % of maximum MRS2179 mean value,26.4,4.579 ± 0.1247,154.3 ± 13.86,behaved as inverse agonists,–,–,–,–
"Nc1ncnc2c1ncn2[C@@H]1O[C@H](COP(=O)(O)OP(=O)(O)O)[C@@H](O)[C@H]1O [ADP, adenosine diphosphate]",–,–,–,–,–,–,–,–,–,–,–,slightly but significantly potentiated,significant but moderate decrease of the BRET signal,-0.02511 and -0.01906 and -0.00821 and -0.04045 and -0.02327 and -0.02843,significantly increased
